Numbered stars: 1 amine (or outer) side, 2 acyl side, 3 side chain; on linkers, the order of the positions; unused ones are H or OH. Bridge positions count the residues as written; N and C are the ends. Square brackets hold non-standard residues; d marks the D form. Peptide text beside a SMILES is read from it. * marks the point of attachment. ξ: configuration not given here. Phe(4-COOH) = N[C@@H](Cc1ccc(C(=O)O)cc1)C(=O)O; X27 = O=C([C@H](Cc1ccc2ncccc2c1)N[*:1])[*:2]; Bip = N[C@@H](Cc1ccc(-c2ccccc2)cc1)C(=O)O; Phe(3-CN) = N#Cc1cccc(C[C@H](N)C(=O)O)c1; Phe(3-F) = N[C@@H](Cc1cccc(F)c1)C(=O)O; Phe(3-Me) = Cc1cccc(C[C@H](N)C(=O)O)c1; X41 = O=C([C@H](CC1CCCNC1)N[*:1])[*:2]; Bta = N[C@@H](Cc1csc2ccccc12)C(=O)O; Val(3-OH) = CC(C)(O)[C@H](N)C(=O)O; 3Pal = N[C@@H](Cc1cccnc1)C(=O)O; 4Pal = N[C@@H](Cc1ccncc1)C(=O)O; 3Thi = N[C@@H](Cc1ccsc1)C(=O)O; Cha = N[C@@H](CC1CCCCC1)C(=O)O; Cit = NC(=O)NCCC[C@H](N)C(=O)O; Ile(3ξ) = CCC(C)[C@H](N)C(=O)O; Thr(3ξ) = CC(O)[C@H](N)C(=O)O; Carboxymethyl = O=C(O)C*; NMeA = CN[C@@H](C)C(=O)O; Dab = NCC[C@H](N)C(=O)O

By IC50 is commonly meant the concentration needed to halve the response being measured.

T1 sequence (Q15116 25-288): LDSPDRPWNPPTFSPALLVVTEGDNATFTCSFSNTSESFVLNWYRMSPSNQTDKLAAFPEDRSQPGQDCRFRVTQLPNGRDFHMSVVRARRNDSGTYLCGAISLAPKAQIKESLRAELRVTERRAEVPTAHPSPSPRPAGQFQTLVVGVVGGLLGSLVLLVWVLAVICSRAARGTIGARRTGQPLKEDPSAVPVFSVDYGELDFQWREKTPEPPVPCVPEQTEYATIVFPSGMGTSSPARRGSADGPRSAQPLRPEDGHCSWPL

The test concerns the target T1, PE-labeled human PD-L1-Ig binding to Jurkat cell line over-expressing human PD-1 (Jurkat-PD-1) (Homo sapiens, UniProt Q15116).
T1 construct: expressed in transfected cells; host or cells: Jurkat
Description: Jurkat-PD-1 Cell Binding High-Content Screening Assay (CBA): Method 1. To be noted: Jurkat-hPD-1 cells, PE-labeled PD-L1-Ig 20 nM final; read-out: Jurkat HPDL1 PD1 IC50 (uM) (Method 1).
As to `Cc1cccc(C[C@@H]2NC(=O)[C@H](CC(=O)O)NC(=O)[C@H](Cc3ccc(C(=O)O)cc3)NC(=O)[C@H](Cc3ccc(OCC(=O)O)cc3)NC(=O)CSC[C@@H](C(N)=O)NC(=O)[C@H]([C@@H](C)O)NC(=O)[C@H](C(C)C)NC(=O)[C@H](CC(C)C)NC(=O)[C@H](CC(N)=O)NC(=O)[C@@H](CC(C)C)NC(=O)[C@H](C)N(C)C(=O)[C@H](C(C)C)NC(=O)[C@H](Cc3ccc(-c4ccccc4)cc3)NC(=O)[C@H](CC(C)C)NC2=O)c1` [Compound 1682] ({CH2CO}-Y(Carboxymethyl)[Phe(4-COOH)]D[Phe(3-Me)]L[Bip]V[NMeA][dL]NLVTC-NH2; thioether N-14), the IC50 turned out to be 0.09 µM.

In the case of `CC(C)C[C@@H]1NC(=O)CSC[C@@H](C(=O)N[C@@H](C)C(N)=O)NC(=O)[C@H](CO)NC(=O)[C@H](C(C)C)NC(=O)[C@H](CC(C)C)NC(=O)[C@H](CCCNC(=N)N)NC(=O)[C@H](Cc2csc3ccccc23)NC(=O)[C@H](C)N(C)C(=O)[C@H](CCCNC(=N)N)NC(=O)[C@H](Cc2ccc(-c3ccccc3)cc2)NC(=O)[C@H](C(C)C)NC(=O)[C@H](Cc2c[nH]c3ccccc23)NC(=O)[C@H](CC(=O)O)NC(=O)[C@H](Cc2ccc(O)cc2)NC1=O` [Compound 1041] ({CH2CO}-LYDWV[Bip]R[NMeA][Bta]RLVSCA-NH2; thioether N-14), the IC50 was determined as 0.31 µM.

Take `CCC(C)[C@@H]1NC(=O)[C@H](Cc2ccc(-c3ccccc3)cc2)NC(=O)[C@H](C(C)C)NC(=O)[C@H](Cc2c[nH]c3ccccc23)NC(=O)[C@H](CC(=O)O)NC(=O)[C@H](Cc2ccc(O)cc2)NC(=O)[C@H](Cc2ccc3ncccc3c2)NC(=O)CSC[C@@H](C(=O)N[C@@H](C)C(N)=O)NC(=O)[C@H](C(C)O)NC(=O)[C@H](C(C)C)NC(=O)[C@H](CC2CCCCC2)NC(=O)[C@H](CCN)NC(=O)[C@@H](CC(C)C)NC(=O)[C@H](C)N(C)C1=O` (stereo partly drawn) [Compound 2045] ({CH2CO}-[X27]YDWV[Bip][Ile(3ξ)][NMeA][dL][Dab][Cha]V[Thr(3ξ)]CA-NH2; thioether N-14): the 50% inhibitory concentration (IC50) came to 0.01 µM.

With `CC[C@H](C)[C@@H]1NC(=O)[C@H](Cc2ccc(-c3ccccc3)cc2)NC(=O)[C@H](C(C)C)NC(=O)[C@H](Cc2c[nH]c3ccccc23)NC(=O)[C@H](CC(=O)O)NC(=O)[C@H](Cc2cccc(C#N)c2)NC(=O)[C@H](Cc2ccncc2)NC(=O)CSC[C@@H](C(=O)N[C@@H](C)C(N)=O)NC(=O)[C@H]([C@@H](C)O)NC(=O)[C@H](C(C)C)NC(=O)[C@H](CC(C)C)NC(=O)[C@H](CCN)NC(=O)[C@@H](CC(C)C)NC(=O)[C@H](C)N(C)C1=O` [Compound 1407] ({CH2CO}-[4Pal][Phe(3-CN)]DWV[Bip]I[NMeA][dL][Dab]LVTCA-NH2; thioether N-14), the IC50 was found to be 0.04 µM.

Take `CC[C@H](C)[C@@H]1NC(=O)[C@H](Cc2ccc(-c3ccccc3)cc2)NC(=O)[C@H](C(C)(C)O)NC(=O)[C@H](Cc2cccc(C)c2)NC(=O)[C@H](CC(=O)O)NC(=O)[C@H](Cc2ccc(O)cc2)NC(=O)[C@H](CC(N)=O)NC(=O)CSC[C@@H](C(=O)N[C@H](C)C(N)=O)NC(=O)[C@H]([C@@H](C)O)NC(=O)[C@H](C(C)(C)O)NC(=O)[C@H](CC2CCCCC2)NC(=O)[C@H](CCN)NC(=O)[C@@H](CC(C)C)NC(=O)[C@H](C)N(C)C1=O` [Compound 1694] ({CH2CO}-NYD[Phe(3-Me)][Val(3-OH)][Bip]I[NMeA][dL][Dab][Cha][Val(3-OH)]TC[dA]-NH2; thioether N-14): the IC50 came to 0.1 µM.

Take `CC(=O)NCCCC[C@@H]1NC(=O)[C@H](C(C)C)NC(=O)[C@H](CC2CCCCC2)NC(=O)[C@H](CCN)NC(=O)[C@@H](CC(C)C)NC(=O)[C@H](C)N(C)C(=O)[C@H](CCC(N)=O)NC(=O)[C@H](Cc2ccc(-c3ccccc3)cc2)NC(=O)[C@H](Cc2ccc(OCC(=O)O)cc2)NC(=O)[C@H](Cc2cccc(C)c2)NC(=O)[C@H](CC(=O)O)NC(=O)[C@H](Cc2ccc(OCC(=O)O)cc2)NC(=O)[C@H](Cc2ccncc2)NC(=O)CSC[C@@H](C(=O)N[C@@H](CCN)C(N)=O)NC1=O` [Compound 2203] ({CH2CO}-[4Pal]Y(Carboxymethyl)D[Phe(3-Me)]Y(Carboxymethyl)[Bip]Q[NMeA][dL][Dab][Cha]VK(Ac)C[Dab]-NH2; thioether N-14): the IC50 came out at 0.01 µM.

Turning to `CC(C)C[C@H]1NC(=O)[C@H](C)N(C)C(=O)[C@H](Cc2ccc(OCC(=O)O)cc2)NC(=O)[C@H](Cc2ccc(-c3ccccc3)cc2)NC(=O)[C@H](Cc2ccc(C(=O)O)cc2)NC(=O)[C@H](Cc2c[nH]c3ccccc23)NC(=O)[C@H](CC(=O)O)NC(=O)[C@H](Cc2ccc(OCC(=O)O)cc2)NC(=O)[C@H](Cc2ccsc2)NC(=O)CSC[C@@H](C(=O)N[C@@H](CCN)C(N)=O)NC(=O)[C@H](CO)NC(=O)[C@H](C(C)(C)O)NC(=O)[C@H](CC2CCCCC2)NC(=O)[C@H](CC(N)=O)NC1=O` [Compound 2131] ({CH2CO}-[3Thi]Y(Carboxymethyl)DW[Phe(4-COOH)][Bip]Y(Carboxymethyl)[NMeA][dL]N[Cha][Val(3-OH)]SC[Dab]-NH2; thioether N-14), the IC50 turned out to be 0.07 µM.

Consider `CC(C)C[C@@H]1NC(=O)[C@H](CCCNC(=N)N)NC(=O)[C@@H](CC(C)C)NC(=O)[C@H](C)N(C)C(=O)[C@H](CCCNC(=N)N)NC(=O)[C@H](Cc2ccc(-c3ccccc3)cc2)NC(=O)[C@H](C(C)C)NC(=O)[C@H](Cc2c[nH]c3ccccc23)NC(=O)[C@H](CC(=O)O)NC(=O)[C@H](Cc2ccncc2)NC(=O)[C@H](Cc2ccccc2)NC(=O)CSC[C@@H](C(=O)N[C@@H](C)C(N)=O)NC(=O)[C@H]([C@@H](C)O)NC(=O)[C@H](C(C)C)NC1=O` [Compound 1085] ({CH2CO}-F[4Pal]DWV[Bip]R[NMeA][dL]RLVTCA-NH2; thioether N-14), for which the half-inhibitory concentration (IC50) came to 0.07 µM.

Take `CCC(C)[C@@H]1NC(=O)[C@H](Cc2ccc(-c3ccccc3)cc2)NC(=O)[C@H](C(C)C)NC(=O)[C@H](Cc2c[nH]c3ccccc23)NC(=O)[C@H](CC(=O)O)NC(=O)[C@H](Cc2ccc(O)cc2)NC(=O)[C@H](CC2CCCNC2)NC(=O)CSC[C@@H](C(=O)N[C@@H](C)C(N)=O)NC(=O)[C@H](C(C)O)NC(=O)[C@H](C(C)C)NC(=O)[C@H](CC2CCCCC2)NC(=O)[C@H](CCN)NC(=O)[C@@H](CC(C)C)NC(=O)[C@H](C)N(C)C1=O` (stereo partly drawn) [Compound 2051] ({CH2CO}-[X41]YDWV[Bip][Ile(3ξ)][NMeA][dL][Dab][Cha]V[Thr(3ξ)]CA-NH2; thioether N-14): the 50% inhibitory concentration (IC50) was 0.01 µM.

Consider `CC[C@H](C)[C@@H]1NC(=O)[C@H](Cc2ccc(-c3ccccc3)cc2)NC(=O)[C@H](CC(C)C)NC(=O)[C@H](Cc2c[nH]c3ccccc23)NC(=O)[C@H](CC(=O)O)NC(=O)[C@H](Cc2ccc(OCC(=O)O)cc2)NC(=O)[C@H](Cc2ccccc2)NC(=O)CSC[C@@H](C(N)=O)NC(=O)[C@H](CO)NC(=O)[C@H](C(C)C)NC(=O)[C@H](CC(C)C)NC(=O)[C@H](CC(N)=O)NC(=O)[C@@H](CC(C)C)NC(=O)[C@H](C)N(C)C1=O` [Compound 1629] ({CH2CO}-FY(Carboxymethyl)DWL[Bip]I[NMeA][dL]NLVSC-NH2; thioether N-14), for which the IC50 was 0.05 µM.

For `CC[C@H](C)[C@@H]1NC(=O)[C@H](Cc2ccc(-c3ccccc3)cc2)NC(=O)[C@H](C(C)C)NC(=O)[C@H](Cc2cccc(C)c2)NC(=O)[C@H](CC(=O)O)NC(=O)[C@H](Cc2ccc(O)cc2)NC(=O)[C@H](CC(N)=O)NC(=O)CSC[C@@H](C(=O)N[C@H](C)C(N)=O)NC(=O)[C@H]([C@@H](C)O)NC(=O)[C@H](C(C)(C)O)NC(=O)[C@H](CC2CCCCC2)NC(=O)[C@H](CCN)NC(=O)[C@@H](CC(C)C)NC(=O)[C@H](C)N(C)C1=O` [Compound 1690] ({CH2CO}-NYD[Phe(3-Me)]V[Bip]I[NMeA][dL][Dab][Cha][Val(3-OH)]TC[dA]-NH2; thioether N-14), the concentration for half-maximal inhibition (IC50) is 0.01 µM.

`CC(C)C[C@@H]1NC(=O)[C@H](CCCNC(=N)N)NC(=O)[C@@H](Cc2ccccc2)NC(=O)[C@H](C)N(C)C(=O)[C@H](CCCNC(=N)N)NC(=O)[C@H](Cc2ccc(-c3ccccc3)cc2)NC(=O)[C@H](C(C)C)NC(=O)[C@H](Cc2c[nH]c3ccccc23)NC(=O)[C@H](CC(=O)O)NC(=O)[C@H](Cc2ccc(O)cc2)NC(=O)[C@H](Cc2cccnc2)NC(=O)CSC[C@@H](C(=O)N[C@@H](C)C(N)=O)NC(=O)[C@H]([C@@H](C)O)NC(=O)[C@H](C(C)C)NC1=O` [Compound 1161] ({CH2CO}-[3Pal]YDWV[Bip]R[NMeA][dF]RLVTCA-NH2; thioether N-14): the half-maximal inhibitory concentration (IC50) turned out to be 0.11 µM.

Regarding `CC(C)C[C@@H]1NC(=O)[C@H](CCN)NC(=O)[C@@H](CC(C)C)NC(=O)[C@H](C)N(C)C(=O)[C@H](CCCNC(N)=O)NC(=O)[C@H](Cc2ccc(-c3ccccc3)cc2)NC(=O)[C@H](C(C)C)NC(=O)[C@H](Cc2c[nH]c3ccccc23)NC(=O)[C@H](CC(=O)O)NC(=O)[C@H](Cc2cccc(F)c2)NC(=O)[C@H](CC(N)=O)NC(=O)CSC[C@@H](C(=O)N[C@@H](C)C(N)=O)NC(=O)[C@H]([C@@H](C)O)NC(=O)[C@H](C(C)C)NC1=O` [Compound 1315] ({CH2CO}-N[Phe(3-F)]DWV[Bip][Cit][NMeA][dL][Dab]LVTCA-NH2; thioether N-14), the half-maximal inhibitory concentration (IC50) stood at 0.06 µM.

For the compound `CC(C)C[C@@H]1NC(=O)[C@H](Cc2c[nH]c3ccccc23)NC(=O)[C@H](CC(=O)O)NC(=O)[C@H](Cc2ccc(C(=O)O)cc2)NC(=O)[C@H](Cc2ccc(OCC(=O)O)cc2)NC(=O)CSC[C@@H](C(N)=O)NC(=O)[C@H](CCCCN)NC(=O)[C@H](C(C)C)NC(=O)[C@H](CC(C)C)NC(=O)[C@H](CC(N)=O)NC(=O)[C@@H](CC(C)C)NC(=O)[C@H](C)N(C)C(=O)[C@H](C(C)C)NC(=O)[C@H](Cc2ccc(-c3ccccc3)cc2)NC1=O` [Compound 2258] ({CH2CO}-Y(Carboxymethyl)[Phe(4-COOH)]DWL[Bip]V[NMeA][dL]NLVKC-NH2; thioether N-14), the IC50 worked out at 0.16 µM.

For the compound `CC(C)C[C@@H]1NC(=O)[C@H](CCCCN)NC(=O)[C@@H](CC(C)C)NC(=O)[C@H](C)N(C)C(=O)[C@H](Cc2cnc[nH]2)NC(=O)[C@H](Cc2ccc(-c3ccccc3)cc2)NC(=O)[C@H](C(C)C)NC(=O)[C@H](Cc2c[nH]c3ccccc23)NC(=O)[C@H](CC(=O)O)NC(=O)[C@H](Cc2ccc(O)cc2)NC(=O)[C@H](CC(N)=O)NC(=O)CSC[C@@H](C(=O)NCC(N)=O)NC(=O)[C@H](CO)NC(=O)[C@H](C(C)C)NC1=O` [Compound 1483] ({CH2CO}-NYDWV[Bip]H[NMeA][dL]KLVSCG-NH2; thioether N-14), the half-maximal inhibitory concentration (IC50) was determined as 0.06 µM.
